From patent publication US7943603B2, “Medical uses of a selective estrogen receptor modulator in combination with sex steroid precursors” (Endorecherche, Inc., priority 1998, dated 2011)

Experiments:
female rat = experiment: Bone mineral density (DEXA) after 9-month treatment; type: in vivo; conditions: DHEA 10 mg percutaneously, EM-800 75 μg orally, once daily, alone or in combination, 9 months
Experimental: Female Sprague-Dawley rats [Crl:CD(SD)Br] were obtained at 44-46 days of age from Charles River Canada Inc. (St. Constant, Quebec) and housed 2 per cage in a light (12 h light/day; lights on at 07:15 h)-and temperature (22±2° C.)-controlled environment. Animals received Purina rodent chow and tap water ad libitum. The animal studies were conducted in a Canadian Council on Animal Care (CCAC)-approved facility in agreement with the CCAC Guide for Care and Use of Experimental Animals.
The animals were randomly divided into groups each containing 20 rats with the exception of 40 animals in the control group. […] Treatment was initiated 3 days before the oral administration of DMBA. EM-800 was synthesized in the Medicinal Chemistry Division of our laboratory while DHEA was purchased from Steraloids Inc., Wilton, N.H.
Rats were anesthetized with an i.p. injection of ketamine hydrochloride and diazepam at doses of 50 and 4 mg/kg B.W., respectively. The whole skeleton and the right femur were scanned using dual energy X-ray absorptiometry (DEXA; QDR 2000-7.10C, Hologic, Waltham, Mass.) equipped with a Regional High Resolution software. The scan field sizes were 28.110×17.805 cm and 5.0×1.902 cm, the resolutions were 0.1511×0.0761 cm and 0.0254×0.0127 cm, while the scan speeds were 0.3608 and 0.0956 mm/sec for total skeleton and femur, respectively. Both bone mineral content (BMC) and bone mineral density (BMD) of total skeleton, lumbar spine, and femur were measured on the scan images of total skeleton and femur.

[1] = system: ovariectomized (OVX) nude mice supplemented with estrone; experiment: Uterine, vaginal and body weight in OVX nude mice bearing ZR-75-1 xenografts; conditions: OVX+E1 nude mice, 9.5 months
Experimental: A posteriori pairwise comparisons were performed using Fisher's test for least significant difference. Main effects and the interaction of treatments on body weight and organ weight were analyzed using a standard two-way ANOVA with interactions. All ANOVAs were performed using SAS program (SAS Institute, Cary, N.C., USA). Significance of differences were declared using a 2-tailed test with an overall level of 5%.

CC1=C(c2ccc(OC(=O)C(C)(C)C)cc2)[C@H](c2ccc(OCCN3CCCCC3)cc2)Oc2cc(OC(=O)C(C)(C)C)ccc21 [EM-800, (+)-7-pivaloyloxy-3-(4′-pivaloyloxyphenyl)-4-methyl-2-(4″-(2′″-piperidinoethoxy)phenyl)-2H-benzopyran]
BMD FEMUR (female rat): 0.3097 ± 0.0047 g/cm2 | BMD LUMBAR SPINE (female rat): 0.1888 ± 0.0045 g/cm2 | BMD TOTAL SKELETON (female rat): 0.1356 ± 0.0017 g/cm2 | increase in BMD of femur versus control (female rat): no significant change | increase in BMD of lumbar spine versus control (female rat): no significant change | increase in BMD of total skeleton versus control (female rat): no significant change | vaginal weight ([1]; EM-800 15 μg daily): 23 ± 1 mg | uterine weight ([1]; EM-800 15 μg orally daily): 49 ± 3 mg | vaginal weight ([1]; EM-800 50 μg daily): 15 ± 1 mg | uterine weight ([1]; EM-800 50 μg orally daily): 36 ± 2 mg | vaginal weight ([1]; EM-800 100 μg daily): 11 ± 1 mg | uterine weight ([1]; EM-800 100 μg orally daily): 32 ± 1 mg | effect on body weight adjusted for tumor weight [1]: No significant effect
